Results published in patent publication US7700592B2, “α2C adrenoreceptor agonists” (Schering Corporation, priority 2005, dated 2010).

Target: T1, α2C receptor (Homo sapiens, UniProt P18825)
T1 sequence (P18825 1-462): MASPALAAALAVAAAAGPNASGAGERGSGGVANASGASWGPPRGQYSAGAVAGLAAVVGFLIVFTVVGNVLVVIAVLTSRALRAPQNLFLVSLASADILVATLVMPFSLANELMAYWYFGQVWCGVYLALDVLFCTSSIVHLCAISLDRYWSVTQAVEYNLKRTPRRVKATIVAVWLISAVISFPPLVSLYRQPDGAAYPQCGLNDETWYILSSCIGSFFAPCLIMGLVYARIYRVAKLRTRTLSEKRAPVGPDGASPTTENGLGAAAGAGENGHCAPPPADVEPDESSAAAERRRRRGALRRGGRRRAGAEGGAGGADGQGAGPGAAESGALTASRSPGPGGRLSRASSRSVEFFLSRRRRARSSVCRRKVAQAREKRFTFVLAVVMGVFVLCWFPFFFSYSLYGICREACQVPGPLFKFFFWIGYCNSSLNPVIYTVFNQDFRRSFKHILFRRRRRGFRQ
Test: GTPγS assay, efficacy agonist activity (Emax) for α2C
Format: biochemical
Details: active agonist = efficacy at α2C ≧30% Emax; functionally selective = additionally efficacy at α2A ≦30% Emax (GTPγS assay)
Procedure, shortened: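 Emax measured in a [^35S]GTPγS functional assay at the human α2C adrenoceptor, following Umland et al. An efficacy of ≧30% Emax defines an active α2C agonist.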

Row | Compound | Efficacy agonist activity (Emax, GTPγS assay) for α2C: evaluated as active or functionally selective agonist
1 | CCCCOC(=O)Nc1ccc2c(c1)N(Cc1c[nH]cn1)CCO2 [Compound 272] | active or functionally selective agonists of the α2C receptor subtype
2 | CCCCCCNC(=O)N(C)c1ccc2c(c1)N(Cc1c[nH]cn1)CCO2 [Compound 273] | active or functionally selective agonists of the α2C receptor subtype
3 | CCN(C(=O)NCc1ccco1)c1ccc2c(c1)N(Cc1c[nH]cn1)CCO2 [Compound 274] | active or functionally selective agonists of the α2C receptor subtype
4 | CCN(C(=O)OCc1cccnc1)c1ccc2c(c1)N(Cc1c[nH]cn1)CCO2 [Compound 275] | active or functionally selective agonists of the α2C receptor subtype
5 | CCN(C(=O)OCc1ccncc1)c1ccc2c(c1)N(Cc1c[nH]cn1)CCO2 [Compound 276] | active or functionally selective agonists of the α2C receptor subtype
6 | CCN(C(=O)OCc1cc(C)on1)c1ccc2c(c1)N(Cc1c[nH]cn1)CCO2 [Compound 278] | active or functionally selective agonists of the α2C receptor subtype
7 | CCN(C(=O)OCc1ccncc1N)c1ccc2c(c1)N(Cc1c[nH]cn1)CCO2 [Compound 279] | active or functionally selective agonists of the α2C receptor subtype
8 | CCN(C(=O)NCc1ccccc1)c1ccc2c(c1)N(Cc1c[nH]cn1)CCO2 [Compound 280] | active or functionally selective agonists of the α2C receptor subtype
9 | CCN(C(=O)OCc1cnc(N)nc1)c1ccc2c(c1)N(Cc1c[nH]cn1)CCO2 [Compound 281] | active or functionally selective agonists of the α2C receptor subtype
10 | CCN(C(=O)OCc1cn(C)cn1)c1ccc2c(c1)N(Cc1c[nH]cn1)CCO2 [Compound 287] | active or functionally selective agonists of the α2C receptor subtype
11 | CCN(C(=O)OCc1cn2ccsc2n1)c1ccc2c(c1)N(Cc1c[nH]cn1)CCO2 [Compound 289] | active or functionally selective agonists of the α2C receptor subtype
12 | CCN(C(=O)OCc1cn2ccccc2n1)c1ccc2c(c1)N(Cc1c[nH]cn1)CCO2 [Compound 290] | active or functionally selective agonists of the α2C receptor subtype
13 | O=C(NCc1ccccn1)Nc1ccc2c(c1)N(Cc1c[nH]cn1)CCO2 [Compound 291] | active or functionally selective agonists of the α2C receptor subtype
14 | O=C(NCCc1cccs1)Nc1ccc2c(c1)N(Cc1c[nH]cn1)CCO2 [Compound 297] | active or functionally selective agonists of the α2C receptor subtype
15 | O=C(Nc1ccc2c(c1)N(Cc1c[nH]cn1)CCO2)OCCOc1ccccc1 [Compound 304] | active or functionally selective agonists of the α2C receptor subtype
16 | O=C(Nc1ccc2c(c1)N(Cc1c[nH]cn1)CCO2)OCc1ccc(F)cc1 [Compound 305] | active or functionally selective agonists of the α2C receptor subtype
17 | O=C(Nc1ccc2c(c1)N(Cc1c[nH]cn1)CCO2)OCc1cccc(F)c1 [Compound 306] | active or functionally selective agonists of the α2C receptor subtype

Row | Compound | Efficacy agonist activity (Emax, GTPγS assay) for α2C: evaluated as active or functionally selective agonist
18 | O=C(NCc1ccc(F)cc1)Nc1ccc2c(c1)N(Cc1c[nH]cn1)CCO2 [Compound 307] | active or functionally selective agonists of the α2C receptor subtype
19 | O=C(NCc1cccc(F)c1)Nc1ccc2c(c1)N(Cc1c[nH]cn1)CCO2 [Compound 308] | active or functionally selective agonists of the α2C receptor subtype
20 | CS(=O)(=O)c1ccc(COC(=O)Nc2ccc3c(c2)N(Cc2c[nH]cn2)CCO3)cc1 [Compound 309] | active or functionally selective agonists of the α2C receptor subtype
21 | O=C(Nc1ccc2c(c1)N(Cc1c[nH]cn1)CCO2)OCc1nccs1 [Compound 310] | active or functionally selective agonists of the α2C receptor subtype
22 | O=C(Nc1ccc2c(c1)N(Cc1c[nH]cn1)CCO2)OCc1cc2cccnc2s1 [Compound 311] | active or functionally selective agonists of the α2C receptor subtype
23 | O=C(Nc1ccc2c(c1)N(Cc1c[nH]cn1)CCO2)OCc1nc2ccccc2s1 [Compound 312] | active or functionally selective agonists of the α2C receptor subtype
24 | O=C(Nc1ccc2c(c1)N(Cc1c[nH]cn1)CCO2)OCc1ccnc(Cl)c1 [Compound 314] | active or functionally selective agonists of the α2C receptor subtype
25 | O=C(Nc1ccc2c(c1)N(Cc1c[nH]cn1)CCO2)OCC1CCC1 [Compound 315] | active or functionally selective agonists of the α2C receptor subtype
26 | O=C(Nc1ccc2c(c1)N(Cc1c[nH]cn1)CCO2)OCc1ccc2sccc2c1 [Compound 316] | active or functionally selective agonists of the α2C receptor subtype
27 | Cc1cc(COC(=O)Nc2ccc3c(c2)N(Cc2c[nH]cn2)CCO3)no1 [Compound 317] | active or functionally selective agonists of the α2C receptor subtype
28 | O=C(Nc1ccc2c(c1)N(Cc1c[nH]cn1)CCO2)OCc1cccnc1 [Compound 318] | active or functionally selective agonists of the α2C receptor subtype
29 | CCN(C(=O)OCCSC)c1ccc2c(c1)N(Cc1c[nH]cn1)CCO2 [Compound 319] | active or functionally selective agonists of the α2C receptor subtype
30 | CCN(C(=O)OCc1cc(C)nn1C)c1ccc2c(c1)N(Cc1c[nH]cn1)CCO2 [Compound 323] | active or functionally selective agonists of the α2C receptor subtype
31 | CCN(C(=O)OCc1cc(C)n(C)n1)c1ccc2c(c1)N(Cc1c[nH]cn1)CCO2 [Compound 324] | active or functionally selective agonists of the α2C receptor subtype
32 | CCN(c1ccc2c(c1)N(Cc1c[nH]cn1)CCO2)c1ccccn1 [Compound 326] | active or functionally selective agonists of the α2C receptor subtype
33 | CCN(c1ccc2c(c1)N(Cc1c[nH]cn1)CCO2)c1nccs1 [Compound 327] | active or functionally selective agonists of the α2C receptor subtype
